The source of these data is patent US4469706A, “Selective beta-2 adrenergic antagonists for the treatment of glaucoma” (priority 1982, dated 1984).

For data set [1], the target named is T1, human ciliary process beta-adrenergic receptors (Homo sapiens, UniProt P07550).
T1 construct: ciliary process from human donor eyes was assayed biochemically; from tissue; host or cells: ciliary process from human donor eyes
Briefly: biochemical.

Data set [2] concerns the target T2, rabbit ciliary process adenylate cyclase (Oryctolagus cuniculus, UniProt G1TAV7).
T2 construct: After isolation of the ciliary process, adenylate cyclase activity was measured; from tissue; host or cells: rabbit ciliary process
Put plainly: Rabbit ciliary process beta-adrenergic sensitive adenylate cyclase activity. Type of data set: biochemical. To be noted: for Ki: antagonists, inhibition of isoproterenol-stimulated activity, Table I, read-out: Adenylate Cyclase Ki, Ciliary Process Rabbit (B).

Data set [3] concerns the target T3, beta-adrenergic sensitive adenylate cyclase present in mammalian choroid plexus (Felis catus, UniProt Q9TST5).
T3 construct: are prepared from the various tissues to be studied (e.g., ciliary process, choroid plexus, heart or lung); from tissue; host or cells: choroid plexus (homogenate or washed particulate)
Put plainly: Choroid plexus adenylate cyclase activity. Type of data set: biochemical.

Data set [4] has as its target T4, heart adenylate cyclase (Rattus norvegicus, UniProt P18090).
T4 construct: are prepared from the various tissues to be studied (e.g., ciliary process, choroid plexus, heart or lung); from tissue; host or cells: heart (homogenate or washed particulate)
The note with it: agonists; Table I; Minneman et al; NE = no effect as agonist; cited from earlier work.

For data set [5], the target named is heart adenylate cyclase. Briefly: Heart adenylate cyclase activation and inhibition. Type of data set: biochemical, mammalian. To be noted: antagonists; Table I; ** data from the present inventor, method (a); read-out: Adenylate Cyclase Ki, Heart (G).
Data set [6] deals with intraocular pressure in rabbit eyes.
In data set [7] the test system is cardioacceleratory effect of isoproterenol. The note with it: subcutaneous antagonist 30 minutes before 3 micrograms/kg subcutaneous isoproterenol; rabbits.
Data set [8] addresses beta1 -adrenergic receptor present in mammalian heart. To be noted: Table I; Minneman et al; read-out: Kd for IHYP Binding, Heart (E); cited from earlier work.
Data set [9] deals with intraocular pressure above normal. Put plainly: Alpha chymotrypsin-induced glaucoma in rabbits. Type of data set: in vivo, rabbit. The note with it: compared with timolol. From the text:
This effect is also observed under conditions of elevated pressure.

The subject of data set [10] is ciliary body adenylate cyclase. Put plainly: Ciliary body adenylate cyclase stimulation. Type of data set: biochemical. An excerpt:
(§1) The discovery that the ciliary process of the mammalian eye contains β2 -adrenergic receptors is based on the technique of measuring adenylate cyclase, an enzyme which synthesizes cyclic AMP from ATP. It has been established that receptor binding of beta adrenergic agonists is associated with a concomitant activation of adenylate cyclase. (Robison, G. A., et al, Cyclic AMP, Academic Press, New York, 1971, and Wolfe, B. B., et al, Annual Reviews of Pharmacology and Toxicology, 17:575-604 (1977)). […] Beta adrenergic sensitive adenylate cyclase activity was thus identified and characterized in the ocular tissues of several mammalian species such as rabbits, cats, dogs, monkeys and humans. After isolation of the ciliary process, adenylate cyclase activity was measured, and its activation by agonists or inhibition by antagonists was measured. […].
(§2) For ciliary body, maximal stimulation was 15% of the stimulation seen in the ciliary process, and for iris, maximal stimulation was 22% for that seen in the ciliary process. […];

The test system of a further data set is iris adenylate cyclase. Put plainly: Iris adenylate cyclase stimulation. Type of data set: biochemical.
Source text: as §1, §2

The subject of data set [11] is rabbit ciliary process adenylate cyclase. Put plainly: Rabbit ciliary process beta-adrenergic sensitive adenylate cyclase activity. Type of data set: biochemical. To be noted: Table I columns B (rabbit ciliary process) and G.
Where [12] appears, read: antagonists, Table I, read-out: Adenylate Cyclase Ki, Choroid Plexus (C).
Setting [13] is: 0.5% topical to ipsilateral eye.
[14] abbreviates: 0.5% topical, two 50 microliter doses, 2 and 3 hours after application.

Counter-ions that a name gives are not always drawn. Like-named read-outs stand apart in the source and are kept apart here.

Broadly, the Ki is a measure of affinity in units of concentration, obtained from inhibition or displacement. As usually defined, the Kd is the concentration at which binding is half-saturated.

T2 sequence (G1TAV7 1-437): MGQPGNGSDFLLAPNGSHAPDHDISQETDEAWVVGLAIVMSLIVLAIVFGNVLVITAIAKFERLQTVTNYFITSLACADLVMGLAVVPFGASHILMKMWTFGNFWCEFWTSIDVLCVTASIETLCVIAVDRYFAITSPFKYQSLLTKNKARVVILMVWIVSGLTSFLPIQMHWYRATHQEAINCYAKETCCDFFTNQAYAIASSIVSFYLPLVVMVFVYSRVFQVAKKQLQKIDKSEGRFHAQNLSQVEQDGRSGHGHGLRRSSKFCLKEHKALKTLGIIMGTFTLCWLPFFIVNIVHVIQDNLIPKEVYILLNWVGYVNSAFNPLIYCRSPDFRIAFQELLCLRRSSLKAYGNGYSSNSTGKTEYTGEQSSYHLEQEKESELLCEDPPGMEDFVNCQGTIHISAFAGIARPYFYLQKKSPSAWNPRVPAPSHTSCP
T3 sequence (Q9TST5 whole entry): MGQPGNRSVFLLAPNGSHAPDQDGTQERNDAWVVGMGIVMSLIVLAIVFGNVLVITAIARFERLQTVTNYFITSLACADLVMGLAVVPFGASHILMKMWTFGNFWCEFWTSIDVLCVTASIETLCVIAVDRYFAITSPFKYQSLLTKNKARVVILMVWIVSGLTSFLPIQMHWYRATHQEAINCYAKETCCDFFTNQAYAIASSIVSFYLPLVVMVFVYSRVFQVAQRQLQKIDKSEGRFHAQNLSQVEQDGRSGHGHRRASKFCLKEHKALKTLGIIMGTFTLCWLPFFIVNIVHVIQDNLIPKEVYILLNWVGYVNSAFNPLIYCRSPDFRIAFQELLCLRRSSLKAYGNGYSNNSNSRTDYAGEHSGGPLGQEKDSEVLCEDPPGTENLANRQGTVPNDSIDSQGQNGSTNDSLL
T1 sequence (P07550 whole entry): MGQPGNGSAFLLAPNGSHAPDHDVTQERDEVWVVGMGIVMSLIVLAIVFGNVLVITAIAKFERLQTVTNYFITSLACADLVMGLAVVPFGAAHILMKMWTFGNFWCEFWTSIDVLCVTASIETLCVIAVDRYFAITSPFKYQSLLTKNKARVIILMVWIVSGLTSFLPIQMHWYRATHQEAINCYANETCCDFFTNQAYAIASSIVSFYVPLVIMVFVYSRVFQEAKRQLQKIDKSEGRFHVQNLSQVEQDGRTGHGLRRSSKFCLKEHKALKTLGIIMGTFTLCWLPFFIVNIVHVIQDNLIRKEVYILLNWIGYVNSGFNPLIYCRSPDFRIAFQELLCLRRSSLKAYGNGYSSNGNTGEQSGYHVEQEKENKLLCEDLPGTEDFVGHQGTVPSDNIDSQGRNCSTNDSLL
T4 sequence (P18090 whole entry): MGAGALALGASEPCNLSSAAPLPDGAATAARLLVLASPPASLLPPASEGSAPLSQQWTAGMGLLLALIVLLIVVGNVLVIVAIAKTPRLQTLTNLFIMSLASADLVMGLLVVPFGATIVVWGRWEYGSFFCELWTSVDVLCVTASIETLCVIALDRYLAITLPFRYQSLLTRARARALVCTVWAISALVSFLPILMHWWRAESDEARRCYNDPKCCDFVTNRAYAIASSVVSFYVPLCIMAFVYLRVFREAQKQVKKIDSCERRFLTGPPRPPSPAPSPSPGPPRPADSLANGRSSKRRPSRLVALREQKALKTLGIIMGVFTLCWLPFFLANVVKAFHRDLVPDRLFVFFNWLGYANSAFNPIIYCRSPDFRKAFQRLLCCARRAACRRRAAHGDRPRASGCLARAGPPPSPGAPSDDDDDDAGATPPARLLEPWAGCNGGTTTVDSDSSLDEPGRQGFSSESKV

On to `Cc1ccc(C(O)C(C)NC(C)C)cc1` (stereo not drawn) [H35/25, 1(4'-methylphenyl)-2-isopropyl amino propanol], for which the Ki in data set [1] (antagonists, inhibition of isoproterenol-stimulated activity, Table I column A, read-out: Adenylate Cyclase Ki, Ciliary Process Human (A)) is 740 nM; in data set [1] (human ciliary process, Table 3, read-out: Ki for Isoproterenol-Stimulated Adenylate Cyclase), 740 nM; in data set [1] (inhibition of isoproterenol stimulation of human ciliary process adenylate cyclase, read-out: calculated inhibitory constant (Ki)) it was 740 nM; in data set [2], 700 nM; in data set [3], 140 nM. In addition, the “beta2/beta1 Potency Ratio” value in [1] (human ciliary process, Table 3) was 8.8.

Turning to `CNC[C@H](O)c1ccc(O)c(O)c1` [Epinephrine], the values for the EC50 in [2] and in [3] were 2400 nM and 1550 nM, respectively. Moreover, the “Adenylate Cyclase Ka, Heart (G)” value on heart adenylate cyclase [4] is 1.5 µM.

Regarding `Cc1ccc(OCC(O)C(C)NC(C)C)c2c1CCC2` (stereo not drawn) [ICI 118,551], the results for the Ki (in data set [2]; at heart adenylate cyclase [5]) were 3 nM and 1760 nM, respectively. In data set [6] (rabbit, in vivo), the Ocular irritative effects result is “little ocular irritative effects”. In addition, the “Decrease in intraocular pressure compared with timolol” value in data set [6] (topical 50 μl of a 1% solution, 6 hours, N=12 double blind crossover) is recorded as “both a greater decrease as well as a more prolonged decrease in intraocular pressure than did timolol”. The “IC50 for blocking isoproterenol-induced increase in heart rate” value in data set [7] is reported as 140 micrograms/kg.

As to `CC(C)NCC(O)COc1ccc(CC(N)=O)cc1` (stereo not drawn) [Atenolol, atenolol], the Ki in data set [2] amounted to 21000 nM; in data set [3] (setting [12]) it was 5800 nM; on heart adenylate cyclase [5], 2700 nM.

On to `NC[C@H](O)c1ccc(O)c(O)c1` [Norepinephrine], for which the EC50 in [2] turned out to be 29000 nM; in [3] (agonists, Table I, read-out: Adenylate Cyclase Ka, Choroid Plexus (C)), 25000 nM. Further, the dissociation constant (Kd) in data set [8] is 820 nM.

`CC(C)(C)NCC(O)CON=C1c2ccccc2-c2ccccc21` (stereo not drawn) [IPS 339, (t-butyl-amino 3-ol-2-propyl) oximino-9 fluorene, hydrochloride] had a Ki in [3] of 1.9 nM. The Ki at heart adenylate cyclase [5] came out at 1120 nM. Further, the “Intraocular pressure above normal” value in data set [9] was “decreased significantly”. Further, in data set [6] (setting [13]), the “Change of IOP in the contralateral eye” value is on record as “significant decrease in IOP in the contralateral eye” and the “Magnitude of contralateral IOP effect compared with timolol” value is given as “somewhat less for IPS 339 than for timolol”. Also, the “Change of IOP in ipsilateral eyes compared to predrug readings” value in [6] (setting [14]) is “significant decrease in IOP in ipsilateral eyes”. For the same compound, the “Extent of IOP decrease compared with timolol” value in [6] (0.5% topical, at 3 hours) is given as “significantly more than that caused by timolol”. The “Pupillary diameter and overt ocular toxicity” value in data set [6] (rabbit, in vivo) is “no significant changes in pupillary diameter nor overt ocular toxicity”. The Kd in data set [8] is 10 nM.

`CC(C)NCC(O)c1ccc(O)c(O)c1` (stereo not drawn) [Isoproterenol] registered an EC50 in [3] of 140 nM. Moreover, the “Maximal stimulation, of the stimulation seen in the ciliary process” value in [10] turned out to be 15%. Further, the “Maximal stimulation, of that seen in the ciliary process” value in the data set on iris adenylate cyclase amounted to 22%.

As to `COc1ccc(OC)c(C(O)C(C)NC(C)(C)C)c1` (stereo not drawn) [Butoxamine], the Ki in [2] came out at 1530 nM; in data set [3] (setting [12]), 1500 nM; at heart adenylate cyclase [5], 15000 nM. Besides, in data set [11], the “β2/β1 potency ratio (Ki heart/Ki ciliary process)” value is 9.8. Further, the Kd in data set [8] is 7030 nM.

As to `CC(=O)Nc1ccc(OCC(O)CNC(C)C)cc1` (stereo not drawn) [Practolol, practolol], the Ki was 39000 nM in data set [2], 8900 nM in data set [3] (setting [12]) and 5500 nM on heart adenylate cyclase [5]. Also, the Kd in data set [8] is 1100 nM.

`CC(C)(C)NC[C@H](O)COc1nsnc1N1CCOCC1` [Timolol, timolol]: the Ki came out at 6.4 nM in data set [2] and 20 nM on heart adenylate cyclase [5]. Also, the “Change of IOP in the contralateral eye” value in [6] (setting [13]) is reported as “significant decrease in IOP in the contralateral eye”. The “Change of IOP in ipsilateral eyes compared to predrug readings” value in [6] (setting [14]) was “significant decrease in IOP in ipsilateral eyes”; in [6] (0.5% topical, 1 hour after application), “also caused a significant decrease at 1 hour”. Besides, in data set [6] (rabbit, in vivo), the “Pupillary diameter and overt ocular toxicity” value was “no significant changes in pupillary diameter nor overt ocular toxicity”. Besides, in data set [7], the “IC50 for blocking isoproterenol-induced increase in heart rate” value is on record as 2.2 micrograms/kg.
